Numbers after ± are expanded uncertainties.
Conditions: 101 kPa, Liquid

Row | SMILES | mass density (298.15 K) [kg/m3] | mass density (308.15 K) [kg/m3] | mass density (323.15 K) [kg/m3]
1 | CCCCCCCCCCn1cc[n+](C)c1.O=S(=O)([N-]S(=O)(=O)C(F)(F)F)C(F)(F)F | 1284 ± 10 | 1256 ± 10 | 1221 ± 10
2 | CCCCCCCCn1cc[n+](C)c1.O=S(=O)([N-]S(=O)(=O)C(F)(F)F)C(F)(F)F | 1343 ± 11 | 1323 ± 10 | 1287 ± 10
3 | CCCCCC[n+]1ccn(C)c1.O=S(=O)([N-]S(=O)(=O)C(F)(F)F)C(F)(F)F | 1391 ± 11 | 1373 ± 11 | 1340 ± 10

Reference: the NIST ThermoML archive (doi:10.1021/je4001944)
